Active and inactive are the calls of the source.
How the values were obtained:
[1] = molecular target: Muscarinic acetylcholine receptor M4 (Homo sapiens) (UniProt P08173); conditions: Compound concentration 10.0 uM
[2] = molecular target: T1, Kappa-type opioid receptor (Homo sapiens, UniProt P41145); conditions: Compound concentration 10.0 uM
[3] = molecular target: T2, Bromodomain-containing protein 2 (Homo sapiens, UniProt P25440); experiment: TR-FRET assay (BRD2 BD2)
[4] = molecular target: D(3) dopamine receptor (Homo sapiens) (UniProt P35462); conditions: Compound concentration 10.0 uM
[5] = molecular target: T3, Bromodomain-containing protein 3 (Homo sapiens, UniProt Q15059); experiment: BRD3 BD2 Bromoscan (DiscoverX)
Target sequence in this assay (Q15059 whole entry): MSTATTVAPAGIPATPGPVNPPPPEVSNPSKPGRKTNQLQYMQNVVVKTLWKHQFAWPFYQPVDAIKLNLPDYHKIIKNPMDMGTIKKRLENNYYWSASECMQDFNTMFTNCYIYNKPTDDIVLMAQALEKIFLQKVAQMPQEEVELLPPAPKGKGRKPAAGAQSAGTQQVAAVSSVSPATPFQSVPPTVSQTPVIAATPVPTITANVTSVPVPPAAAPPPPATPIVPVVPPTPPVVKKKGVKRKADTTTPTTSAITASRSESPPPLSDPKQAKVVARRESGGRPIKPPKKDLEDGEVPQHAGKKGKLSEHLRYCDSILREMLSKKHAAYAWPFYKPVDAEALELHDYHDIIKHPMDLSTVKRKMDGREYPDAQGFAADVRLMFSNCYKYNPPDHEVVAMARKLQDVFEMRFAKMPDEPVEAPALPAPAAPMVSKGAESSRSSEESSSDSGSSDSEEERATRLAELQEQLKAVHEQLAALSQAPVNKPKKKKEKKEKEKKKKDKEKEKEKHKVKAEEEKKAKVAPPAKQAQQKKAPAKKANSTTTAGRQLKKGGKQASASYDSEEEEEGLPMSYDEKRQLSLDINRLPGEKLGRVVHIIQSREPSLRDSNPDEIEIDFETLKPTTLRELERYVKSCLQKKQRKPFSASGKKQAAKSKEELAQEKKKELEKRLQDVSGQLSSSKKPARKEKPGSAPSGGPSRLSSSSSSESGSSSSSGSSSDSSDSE

[6] = molecular target: Beta-3 adrenergic receptor (Homo sapiens) (UniProt P13945); conditions: Compound concentration 10.0 uM
[7] = molecular target: SWI/SNF-related matrix-associated actin-dependent regulator of chromatin subfamily A member 4 (Homo sapiens, UniProt P51532); experiment: SMARCA4 DiscoverX BROMOscan
[8] = molecular target: Beta-1 adrenergic receptor (Homo sapiens) (UniProt P08588); conditions: Compound concentration 10.0 uM
[9] = molecular target: T2, Bromodomain-containing protein 2; experiment: BRD2(1) DiscoverX BROMOscan
[10] = molecular target: E3 ubiquitin-protein ligase TRIM33 (Homo sapiens, UniProt Q9UPN9); experiment: TRIM33(PHD,Bromo.) DiscoverX BROMOscan
Protein polybromo-1 = Protein polybromo-1 (Homo sapiens, UniProt Q86U86); experiment: PBRM1(2) DiscoverX BROMOscan
[11] = molecular target: T3, Bromodomain-containing protein 3; experiment: BET mutant TR-FRET assay (BRD3 BD2)
[12] = molecular target: D(1B) dopamine receptor (Homo sapiens) (UniProt P21918); conditions: Compound concentration 10.0 uM
[13] = molecular target: T3, Bromodomain-containing protein 3; experiment: BRD3 BD1 Bromoscan (DiscoverX)
Target sequence in this assay (Q15059 whole entry): as above

[14] = molecular target: 5-hydroxytryptamine receptor 2B (Homo sapiens) (UniProt P41595); conditions: Compound concentration 10.0 uM
[15] = molecular target: T3, Bromodomain-containing protein 3; experiment: BRD3(1) DiscoverX BROMOscan
Target sequence in this assay (Q15059 whole entry): as above

[16] = molecular target: T4, Bromodomain testis-specific protein (Homo sapiens, UniProt Q58F21); experiment: BRDT BD2 Bromoscan (DiscoverX)
[17] = molecular target: 5-hydroxytryptamine receptor 3A (Homo sapiens) (UniProt P46098); conditions: Compound concentration 10.0 uM
Substance-P receptor = Substance-P receptor (Homo sapiens, UniProt P25103); experiment: (§1) Cross screening panel
[18] = molecular target: cGMP-inhibited 3',5'-cyclic phosphodiesterase 3A (Homo sapiens, UniProt Q14432); experiment: as §1
[19] = molecular target: Sodium channel protein type 5 subunit alpha (Homo sapiens, UniProt Q14524); experiment: as §1
[20] = molecular target: Muscarinic acetylcholine receptor M1 (Homo sapiens, UniProt P11229); experiment: as §1
[21] = molecular target: Voltage-dependent L-type calcium channel subunit alpha-1C (Homo sapiens, UniProt Q13936); experiment: as §1
[22] = molecular target: Nuclear receptor subfamily 1 group I member 2 (Homo sapiens, UniProt O75469); experiment: as §1
[23] = molecular target: T1, Kappa-type opioid receptor; experiment: as §1
[24] = molecular target: 5-hydroxytryptamine receptor 3A (Homo sapiens, UniProt P46098); experiment: as §1
[25] = molecular target: 3',5'-cyclic-AMP phosphodiesterase 4B (Homo sapiens, UniProt Q07343); experiment: as §1
Cannabinoid receptor 2 = Cannabinoid receptor 2 (Homo sapiens, UniProt P34972); experiment: as §1
Aurora kinase B = Aurora kinase B (Homo sapiens, UniProt Q96GD4); experiment: as §1
[26] = molecular target: Sodium-dependent serotonin transporter (Homo sapiens, UniProt P31645); experiment: as §1
[27] = molecular target: Aryl hydrocarbon receptor (Homo sapiens, UniProt P35869); experiment: as §1
[28] = molecular target: Glutamate receptor ionotropic, NMDA 2B (Homo sapiens, UniProt Q13224); experiment: as §1
Vasopressin V1a receptor = Vasopressin V1a receptor (Homo sapiens, UniProt P37288); experiment: as §1
[29] = molecular target: Tyrosine-protein kinase Lck (Homo sapiens, UniProt P06239); experiment: as §1
[30] = molecular target: 5-hydroxytryptamine receptor 2A (Homo sapiens, UniProt P28223); experiment: as §1
[31] = molecular target: T4, Bromodomain testis-specific protein; experiment: BRDT BD1 Bromoscan (DiscoverX)
[32] = molecular target: Transcription initiation factor TFIID subunit 1-like (Homo sapiens, UniProt Q8IZX4); experiment: TAF1L(2) DiscoverX BROMOscan
[33] = molecular target: 5-hydroxytryptamine receptor 7 (Homo sapiens) (UniProt P34969); conditions: Compound concentration 10.0 uM
[34] = molecular target: T2, Bromodomain-containing protein 2; experiment: BRD2(1,2) DiscoverX BROMOscan
[35] = molecular target: Sigma non-opioid intracellular receptor 1 (Homo sapiens) (UniProt Q99720); conditions: Compound concentration 10.0 uM
[36] = molecular target: Transcription intermediary factor 1-alpha (Homo sapiens, UniProt O15164); experiment: TRIM24(PHD,Bromo.) DiscoverX BROMOscan
[37] = molecular target: T4, Bromodomain testis-specific protein; experiment: BRDT(1) DiscoverX BROMOscan
[38] = molecular target: Sodium-dependent dopamine transporter (Homo sapiens) (UniProt Q01959); conditions: Compound concentration 10.0 uM
[39] = molecular target: T2, Bromodomain-containing protein 2; experiment: BRD2 BD1 Bromoscan (DiscoverX)
[40] = molecular target: Histamine H2 receptor (Homo sapiens) (UniProt P25021); conditions: Compound concentration 10.0 uM
D(1A) dopamine receptor = D(1A) dopamine receptor (Homo sapiens, UniProt P21728); conditions: Compound concentration 10.0 uM
[41] = molecular target: Bromodomain-containing protein 7 (Homo sapiens, UniProt Q9NPI1); experiment: BRD7 DiscoverX BROMOscan
[42] = molecular target: T4, Bromodomain testis-specific protein; experiment: BET mutant TR-FRET assay (BRDT BD2)
[43] = molecular target: Delta-type opioid receptor (Homo sapiens) (UniProt P41143); conditions: Compound concentration 10.0 uM
[44] = molecular target: T4, Bromodomain testis-specific protein; experiment: BRDT(2) DiscoverX BROMOscan
[45] = molecular target: D(4) dopamine receptor (Homo sapiens) (UniProt P21917); conditions: Compound concentration 10.0 uM
[46] = molecular target: Bromodomain-containing protein 9 (Homo sapiens, UniProt Q9H8M2); experiment: BRD9 DiscoverX BROMOscan
[47] = molecular target: Bromodomain-containing protein 1 (Homo sapiens, UniProt O95696); experiment: BRD1 DiscoverX BROMOscan
[48] = molecular target: 5-hydroxytryptamine receptor 1D (Homo sapiens, UniProt P28221); conditions: Compound concentration 10.0 uM
[49] = molecular target: Bromodomain adjacent to zinc finger domain protein 2B (Homo sapiens, UniProt Q9UIF8); experiment: BAZ2B DiscoverX BROMOscan
[50] = molecular target: 5-hydroxytryptamine receptor 5A (Homo sapiens) (UniProt P47898); conditions: Compound concentration 10.0 uM
[51] = molecular target: Muscarinic acetylcholine receptor M3 (Homo sapiens) (UniProt P20309); conditions: Compound concentration 10.0 uM

T2 sequence (P25440 whole entry): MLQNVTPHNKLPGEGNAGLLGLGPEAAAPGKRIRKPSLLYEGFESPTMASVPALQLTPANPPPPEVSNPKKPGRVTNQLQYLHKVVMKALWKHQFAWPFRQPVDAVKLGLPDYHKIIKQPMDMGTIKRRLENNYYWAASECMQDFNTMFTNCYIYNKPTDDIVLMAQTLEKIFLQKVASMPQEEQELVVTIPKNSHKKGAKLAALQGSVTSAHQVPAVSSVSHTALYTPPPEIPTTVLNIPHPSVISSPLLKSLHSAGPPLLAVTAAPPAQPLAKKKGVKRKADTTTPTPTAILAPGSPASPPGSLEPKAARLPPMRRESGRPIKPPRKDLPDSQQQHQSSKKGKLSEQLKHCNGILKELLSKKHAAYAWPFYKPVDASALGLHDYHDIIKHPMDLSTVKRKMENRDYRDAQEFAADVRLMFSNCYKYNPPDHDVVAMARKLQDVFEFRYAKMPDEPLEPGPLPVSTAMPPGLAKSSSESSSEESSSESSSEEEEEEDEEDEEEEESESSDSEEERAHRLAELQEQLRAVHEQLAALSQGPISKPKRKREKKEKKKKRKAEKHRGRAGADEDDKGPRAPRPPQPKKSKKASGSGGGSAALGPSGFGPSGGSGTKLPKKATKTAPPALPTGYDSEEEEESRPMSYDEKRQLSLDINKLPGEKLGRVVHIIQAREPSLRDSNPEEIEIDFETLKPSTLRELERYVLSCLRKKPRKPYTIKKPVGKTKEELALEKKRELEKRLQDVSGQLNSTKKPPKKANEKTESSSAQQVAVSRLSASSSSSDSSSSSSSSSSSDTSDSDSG
T1 sequence (P41145 whole entry): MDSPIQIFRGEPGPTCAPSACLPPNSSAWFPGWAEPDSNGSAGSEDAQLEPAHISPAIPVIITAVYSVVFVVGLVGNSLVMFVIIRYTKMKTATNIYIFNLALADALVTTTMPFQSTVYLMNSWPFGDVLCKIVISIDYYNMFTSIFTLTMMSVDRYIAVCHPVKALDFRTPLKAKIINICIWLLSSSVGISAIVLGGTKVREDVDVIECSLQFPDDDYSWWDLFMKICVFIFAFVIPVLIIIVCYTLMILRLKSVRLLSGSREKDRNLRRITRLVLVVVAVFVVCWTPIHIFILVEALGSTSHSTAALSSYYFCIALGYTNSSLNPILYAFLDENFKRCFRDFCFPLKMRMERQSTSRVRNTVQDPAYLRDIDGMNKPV
Chain of 5-hydroxytryptamine receptor 3A (P46098 whole entry): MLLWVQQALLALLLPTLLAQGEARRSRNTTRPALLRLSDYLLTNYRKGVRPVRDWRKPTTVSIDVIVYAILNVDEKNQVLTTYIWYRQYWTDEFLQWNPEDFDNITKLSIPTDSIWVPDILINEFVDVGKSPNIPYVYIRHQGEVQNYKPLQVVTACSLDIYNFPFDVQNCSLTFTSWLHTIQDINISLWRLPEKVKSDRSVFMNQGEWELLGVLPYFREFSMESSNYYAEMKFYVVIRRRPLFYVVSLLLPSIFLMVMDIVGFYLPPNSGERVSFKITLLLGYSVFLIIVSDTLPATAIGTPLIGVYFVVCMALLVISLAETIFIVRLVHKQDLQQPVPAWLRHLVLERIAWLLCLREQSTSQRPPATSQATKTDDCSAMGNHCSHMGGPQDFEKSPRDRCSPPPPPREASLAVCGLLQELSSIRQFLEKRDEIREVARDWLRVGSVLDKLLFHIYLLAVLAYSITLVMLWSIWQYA
Chain of Muscarinic acetylcholine receptor M1 (P11229 whole entry): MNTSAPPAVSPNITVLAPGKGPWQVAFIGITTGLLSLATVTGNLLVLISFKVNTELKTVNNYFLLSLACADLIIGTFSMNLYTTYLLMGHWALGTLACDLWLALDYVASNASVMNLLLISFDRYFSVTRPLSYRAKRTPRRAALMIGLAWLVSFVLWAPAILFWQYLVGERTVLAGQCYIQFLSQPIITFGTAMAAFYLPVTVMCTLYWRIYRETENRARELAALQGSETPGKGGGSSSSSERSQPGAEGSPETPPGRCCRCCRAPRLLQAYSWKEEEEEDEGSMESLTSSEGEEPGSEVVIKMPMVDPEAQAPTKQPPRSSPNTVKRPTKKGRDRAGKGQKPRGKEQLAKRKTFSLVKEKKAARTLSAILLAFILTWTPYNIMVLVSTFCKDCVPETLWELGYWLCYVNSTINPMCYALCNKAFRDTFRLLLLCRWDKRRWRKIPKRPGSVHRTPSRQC
Chain of Bromodomain-containing protein 7 (Q9NPI1 whole entry): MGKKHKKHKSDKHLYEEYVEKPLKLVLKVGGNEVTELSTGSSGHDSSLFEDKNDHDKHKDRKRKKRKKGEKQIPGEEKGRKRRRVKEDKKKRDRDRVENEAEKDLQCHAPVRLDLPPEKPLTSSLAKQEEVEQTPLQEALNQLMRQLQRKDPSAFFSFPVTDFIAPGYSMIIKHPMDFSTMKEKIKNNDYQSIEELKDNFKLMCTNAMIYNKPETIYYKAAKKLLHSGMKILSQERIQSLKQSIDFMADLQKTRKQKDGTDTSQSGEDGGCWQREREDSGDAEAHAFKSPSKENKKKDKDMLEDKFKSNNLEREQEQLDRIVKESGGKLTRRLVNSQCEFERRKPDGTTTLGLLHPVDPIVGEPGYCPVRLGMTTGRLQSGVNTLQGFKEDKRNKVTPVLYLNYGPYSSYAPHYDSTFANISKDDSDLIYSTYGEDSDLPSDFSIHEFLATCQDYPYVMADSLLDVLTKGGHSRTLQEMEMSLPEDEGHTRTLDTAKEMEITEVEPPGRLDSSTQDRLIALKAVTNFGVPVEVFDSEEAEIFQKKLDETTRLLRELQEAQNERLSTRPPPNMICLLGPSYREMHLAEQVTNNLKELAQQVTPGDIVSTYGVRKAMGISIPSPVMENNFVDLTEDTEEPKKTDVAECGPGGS
Chain of Nuclear receptor subfamily 1 group I member 2 (O75469 whole entry): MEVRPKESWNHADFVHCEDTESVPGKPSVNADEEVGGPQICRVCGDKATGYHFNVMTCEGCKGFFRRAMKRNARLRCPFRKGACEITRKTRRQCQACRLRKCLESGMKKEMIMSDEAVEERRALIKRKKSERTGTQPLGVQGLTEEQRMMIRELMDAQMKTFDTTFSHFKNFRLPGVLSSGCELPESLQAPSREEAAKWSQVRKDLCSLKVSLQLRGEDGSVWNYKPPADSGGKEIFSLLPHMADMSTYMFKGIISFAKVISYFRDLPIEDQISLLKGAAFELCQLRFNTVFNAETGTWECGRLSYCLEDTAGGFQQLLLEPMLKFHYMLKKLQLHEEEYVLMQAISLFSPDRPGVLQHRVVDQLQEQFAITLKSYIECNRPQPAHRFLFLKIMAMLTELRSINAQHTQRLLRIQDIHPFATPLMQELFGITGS
Chain of Delta-type opioid receptor (Homo sapiens) (P41143 whole entry): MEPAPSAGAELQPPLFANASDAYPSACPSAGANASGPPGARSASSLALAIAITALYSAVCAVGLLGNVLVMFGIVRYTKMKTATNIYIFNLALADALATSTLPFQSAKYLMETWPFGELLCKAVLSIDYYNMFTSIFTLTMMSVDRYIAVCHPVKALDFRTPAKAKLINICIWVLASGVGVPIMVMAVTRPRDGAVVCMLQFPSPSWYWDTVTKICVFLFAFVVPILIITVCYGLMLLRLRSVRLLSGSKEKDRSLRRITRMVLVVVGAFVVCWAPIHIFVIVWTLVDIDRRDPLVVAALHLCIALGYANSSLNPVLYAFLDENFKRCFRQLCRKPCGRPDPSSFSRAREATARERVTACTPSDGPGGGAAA
Chain of D(1B) dopamine receptor (Homo sapiens) (P21918 whole entry): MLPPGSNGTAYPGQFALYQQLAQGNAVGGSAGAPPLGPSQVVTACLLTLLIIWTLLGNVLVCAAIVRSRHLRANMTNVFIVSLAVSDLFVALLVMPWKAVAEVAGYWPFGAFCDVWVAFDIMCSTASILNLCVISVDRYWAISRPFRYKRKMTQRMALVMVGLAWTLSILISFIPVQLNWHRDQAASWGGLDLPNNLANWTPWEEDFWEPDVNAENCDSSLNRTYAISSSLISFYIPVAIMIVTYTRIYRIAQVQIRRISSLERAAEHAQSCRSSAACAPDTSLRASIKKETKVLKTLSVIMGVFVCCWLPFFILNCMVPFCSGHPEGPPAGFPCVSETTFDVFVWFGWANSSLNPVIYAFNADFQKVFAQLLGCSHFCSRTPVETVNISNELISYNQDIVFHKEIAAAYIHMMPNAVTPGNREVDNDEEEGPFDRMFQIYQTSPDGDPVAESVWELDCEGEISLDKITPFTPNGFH
Chain of 5-hydroxytryptamine receptor 3A (Homo sapiens) (P46098 whole entry): as the sequence (P46098 whole entry) above

CC(=O)Nc1c(F)cc(C(=O)N[C@H]2CC[C@H](O)CC2)cc1O[C@@H](C)c1ccccc1 [GSK046]
2.08 µM (not active): Kd [13]
2.45 µM (not active): Kd [31]
> 31.6 µM: IC50 (Aurora kinase B) | IC50 [29]
30 µM: Kd [7] | Kd [10] | Kd (Protein polybromo-1) | Kd [32] | Kd [36] | Kd [41] | Kd [46] | Kd [47] | Kd [49]
> 25.1 µM: IC50 (Substance-P receptor) | EC50 [30]
1.62 µM (not active): Kd [39]
> 50.1 µM: EC50 [20] | IC50 [20] | EC50 [22] | EC50 [24] | IC50 [24] | IC50 [28]
> 39.8 µM: IC50 (Vasopressin V1a receptor)
100 µM: IC50 [21]
0.1 µM: Kd [34]
active: IC50 [3] 0.264 µM | Kd [5] 0.032 µM | Kd [16] 0.015 µM | inhibition [48] 84.2%
inactive: inhibition [1] -0.27% | inhibition [2] 9.38% | inhibition [4] 39.1% | inhibition [6] 17.5% | inhibition [8] -6.85% | inhibition [12] 21.4% | inhibition [14] -6.98% | inhibition [17] 3.77% | inhibition [33] 17.6% | inhibition [35] 6.84% | inhibition [38] 3.3% | inhibition [40] -7.57% | inhibition (D(1A) dopamine receptor) 4.11% | inhibition [43] 27.1% | inhibition [45] 36% | inhibition [50] -8.96% | inhibition [51] 16%
1.62 µM: Kd [9]
2.08 µM: Kd [15]
7: pIC50 [11]
2.45 µM: Kd [37]
0.015 µM: Kd [44]
6.7: pIC50 [42]
> 100 µM: IC50 [18] | IC50 [19] | EC50 [23] | IC50 [25] | EC50 (Cannabinoid receptor 2) | IC50 [26] | EC50 [27]

From ChEMBL document CHEMBL4630908 (2021)
